# Assays:
# SA1N fibrosarcoma = SA1N fibrosarcoma tumor model, subcutaneous, established tumors; type: in vivo, mice; conditions: for T − C: target size 500 mm^3; for % TGI: IP every 4 days x3, ixabepilone 8 mg/kg, CTLA-4 mAb 20 mg/kg
# Description: Antibody UC10 (hamster IgG anti-mouse CTLA-4) was produced and purified by BMS (Protein Therapeutics Division, Hopewell, N.J., USA). […] Stock solutions of anti-CTLA-4 were kept at −80° C. and were thawed out at 4° C. prior to use. Control antibody consisted of a polyclonal hamster IgG (Jackson ImmunoResearch, West Grove, Pa.). Dosing solutions of Anti-CTLA-4 and hamster IgG control were prepared weekly in sterile phosphate buffered saline (pH 7.0).
# Eight to twelve week-old female BALB/c, A/J or C57/BL6 mice were purchased from Harlan, Indianapolis, Ind. Mice received food and water ad libitum, and were maintained in a controlled environment according to AALAC regulations.
# (§1) Tumor cell lines were maintained in vitro. Treatments were initiated when the subcutaneous tumors reached a median size between 100-200 mm^3 (established model) or prior to detection (initiation model). Tumors were measured twice weekly and tumor size (mm^3) was calculated as […]. Body weights were obtained weekly. The tumor models used in these studies are outlined in Table 1.
# (§2) The dose levels, routes and dosing schedules are indicated for each particular study described below. Antibodies and chemotherapeutic agents were administered intraperitoneally (i.p.). Each treatment regimen consisted of a cohort of eight to ten mice. Anti-tumor activity, defined as percentage tumor growth inhibition, was calculated as follows: % Tumor Growth Inhibition=100−[(Tt/To)/(Ct/Co)]/100−(Ct/Co) where,
# Tt=median tumor size of treated group at the end of treatment
# To=median tumor size of treated group at treatment initiation
# Ct=median tumor size of control group at the end of treatment
# Co=median tumor size at treatment initiation
# (§3) In addition, another parameter used to define efficacy was to determine time to tumor progression to target size (T-C), where the time (days) for the median tumor size of control (C) mice to reach target size was subtracted to the time for median tumor size of treated (T) mice to reach target size.
# Nonparametric analysis using the Wilcoxon test was used to determine statistical significance.
# SA1N fibrosarcoma is an inherently immunogenic tumor line which is sensitive to the effects of CTLA-4 blockade. […] Animals were implanted with SA1N cells subcutaneously and treatments were initiated when tumors reached 100-150 mm^3. Experimental groups consisted of cohorts of 8 mice. […] In the combination groups, CTLA-4 mab was administered one day after each chemotherapy treatment.
# EMT-6 mammary carcinoma = EMT-6 mammary carcinoma tumor model; type: in vivo, mice; conditions: Study 27; for T − C: IP, treatment from day 3/4, ixabepilone 8 mg/kg, paclitaxel 24 mg/kg, CTLA-4 mAb 20 mg/kg
# Description: as §1, §2, §3
# M109 lung carcinoma [1] = experiment: M109 lung carcinoma tumor model, initial tumor implantation; type: in vivo, mice; conditions: for antitumor effect in M109: Study 40, text and FIG. 1
# Description: as §1, §2
# In these studies treatments with chemotherapeutic agents were initiated when tumors were palpable, on day 3 after tumor implantation. […] As in the studies conducted in the SA1N and EMT-6 tumor lines, CTLA-4 mAb was dosed one day after treatment with chemotherapy.
# CT26 colon carcinoma = CT26 colon carcinoma tumor model; type: in vivo, mice; conditions: for antitumor effect in CT26: footnotes and FIG. 2
# Description: as §1
# The dose levels, routes and dosing schedules are indicated for each particular study described below. Antibodies and chemotherapeutic agents were administered intraperitoneally (i.p.). Each treatment regimen consisted of a cohort of eight to ten mice. Anti-tumor activity, defined as percentage tumor growth inhibition, was calculated as follows: % Tumor Growth Inhibition=100−[(Tt/To)/(Ct/Co)]/100−(Ct/Co) where, […]
# [2] = tested on: paclitaxel-sensitive (A2780, HCT116 and LS174T) and paclitaxel-resistant human colon tumors (HCT116NM46), ovarian carcinoma (Pat-7 and A2780Tax) and breast …; experiment: Preclinical pharmacology studies of Compound 1 in tumor models; type: in vivo
# [3] = tested on: SA1N fibrosarcoma, M109 lung carcinoma, EMT-6 mammary carcinoma, CT-26 colon carcinoma and B16 melanoma; experiment: Efficacy studies of CTLA-4 mAb with ixabepilone or paclitaxel across murine tumor models (summary statements); type: in vivo, mice; conditions: animals with complete regressions rechallenged with a lethal dose of tumor cells
# Description: as §1, §2, §3
# M109 lung carcinoma [4] = experiment: M109 rechallenge of tumor-free mice with a lethal M109 cell inoculum; type: in vivo; conditions: tumor-free mice by day 97 rechallenged; 5 ixabepilone mice, 8 combination mice
# Description: To determine whether the combination of CTLA-4+ixabepilone produced a memory immune response able to reject a secondary tumor challenge, animals free of tumors by day 97 were re-challenge with a lethal M109 cell inoculum. For this part of the study, M109 cells were injected into: a) 10 naïve mice (to control for tumor growth); and in study mice free of tumors: b) 5 mice previously treated with ixabepilone and c) 8 mice previously treated with ixabepilone+CTLA-4 mAb. All control mice developed progressive tumors with a median tumor size of 1000 mm^3 10 days later whereas 4 out of 5 mice in the Ixabepilone-treated mice developed tumors (80%).
# [5] = Study 17, study terminated day 116
Molecule,"T − C (SA1N fibrosarcoma; Study 11, study terminated day 52)",T − C (SA1N fibrosarcoma; [5]),antitumor effect in SA1N (SA1N fibrosarcoma; two independent studies),antitumor effect of single agent in EMT-6 (EMT-6 mammary carcinoma),T − C (EMT-6 mammary carcinoma),antitumor effect in M109 (M109 lung carcinoma [1]),antitumor effect in CT26 (CT26 colon carcinoma),oral efficacy ([2]; oral vs parenteral administration),antitumor activity ([2]; paclitaxel-sensitive and paclitaxel-resistant tumor models),protection against subsequent tumor rechallenge [3],"% TGI (SA1N fibrosarcoma; Study 9, calculated Day 36 (last measurement for control group))","T − C (SA1N fibrosarcoma; Study 9, study terminated day 39)","% TGI (SA1N fibrosarcoma; Study 17, calculated Day 33, paclitaxel 24 mg/kg)",% Tumor-free Mice (EMT-6 mammary carcinoma),"% Tumor-Free Mice after Initial Tumor Implantation (M109 lung carcinoma [1]; Study 40, footnote: percentage of animals that develop tumors following implantation on Day 0, chemotherapy from day 3, IP)",mice that developed tumors after M109 rechallenge (M109 lung carcinoma [4]),"% Complete Regressions/Total # mice (CT26 colon carcinoma; IP every 4 days x3, CTLA-4 mAb 20 mg/kg days 5, 9, 13, chemotherapy days 4, 8, 12)"
"5beta,20-Epoxy-1,2alpha,4,7beta,10beta,13alpha-hexahydroxytax-11-en-9-one 4,10-diacetate 2-benzoate 13-ester with (2R,3S)—N-benzoyl-3-phenylisoserine [Paclitaxel]",13 days,0 days,variable effect,ineffective,0 days,did not produce antitumor effects,neither paclitaxel or ixabepilone produced any measurable antitumor activity,,,,,,,,,,
"C/C(=C\c1csc(C)n1)[C@@H]1C[C@@H]2O[C@]2(C)CCC[C@H](C)[C@H](O)[C@@H](C)C(=O)C(C)(C)[C@@H](O)CC(=O)N1 (relative stereo) [Compound 1, [1S-[1R*,3R*(E),7R*,10S*,11R*,12R*,16S*]]-7,11-dihydroxy-8,8,10,12,16-pentamethyl-3-[1-methyl-2-(2-methyl-4-thiazolyl)ethenyl]-4-aza-17-oxabicyclo[14.1.0]heptadecane-5,9-dione]",,,,,,,,orally efficacious,very impressive and broad spectrum of antitumor activity,,,,,,,,
"C/C(=C\c1csc(C)n1)[C@@H]1C[C@@H]2O[C@]2(C)CCC[C@H](C)[C@H](O)[C@@H](C)C(=O)C(C)(C)[C@@H](O)CC(=O)N1 [Ixabepilone, (1S,3S,7S,10R,11S,12S,16R)-7,11-dihydroxy-8,8,10,12,16-pentamethyl-3-[(1E)-1-methyl-2-(2-methyl-4-thiazolyl)ethenyl]-17-oxa-4-azabicyclo[14.1.0]heptadecane-5,9-dione]",,7 days,,,19 days,very effective,neither paclitaxel or ixabepilone produced any measurable antitumor activity,,,only partial protection,92%,11 days,83%,20%,50%,4 out of 5,0/10

# From patent US8449886B2, “Combination of anti-CTLA4 antibody with tubulin modulating agents for the treatment of proliferative diseases” (Bristol-Myers Squibb Company, priority 2008, dated 2013)
